Measured values: US12559461B2, “Antibiotic adjuvant compounds” (UNIVERSITY OF NOTRE DAME DU LAC, priority 2020, dated 2026)
In brackets after ≈: the same amount, converted by molar mass. Entries after “also recorded” stand apart in the source; their conditions may differ. Where two headings read alike, the source gives them in different places. Blank lines part the entries; values can stand above or below the molecule they belong to.

Assays:
AB5075 [1] = assay: Broth microdilution MIC of compound alone (standalone toxicity); type: cell-based, Acinetobacter baumannii
Method in brief: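 A. baumannii 5075 subcultured to 5×10^5 CFU/mL in cation-adjusted Mueller-Hinton broth; compound twofold serially diluted from 200 μM (DMSO stock) and incubated stationary at 37° C for 16 h. MIC taken as lowest concentration with no visible growth; duplicates, repeated at least twice.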

AB5075 [2] = assay: Broth microdilution clarithromycin (CLR) potentiation and dose-response of adjuvant; type: cell-based, Acinetobacter baumannii
Method in brief: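 A. baumannii AB5075 at 5×10^5 CFU/mL in CAMHB with fixed adjuvant (DMSO ≤0.3%) and two-fold serially diluted clarithromycin or colistin, stationary 16 h at 37° C. MIC = lowest concentration without visible growth; fold reduction versus antibiotic alone. Dose-response used adjuvant at 0–30 μM.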

AB5075 [3] = assay: Colistin MIC in presence of adjuvant (broth microdilution antibiotic potentiation); type: cell-based, Acinetobacter baumannii
Experimental: Bacterial Strains and Antimicrobial Agents. Acinetobacter baumannii clinical isolate 5075 was obtained from Dr. Colin Manoil at the University of Washington. Colonies were grown on lysogeny broth (LB) agar. Cation-adjusted Mueller-Hinton Broth (CAMHB) (catalog number 212322) were purchased from BD Diagnostics. LB broth was purchased from Fisher Scientific (catalog number BP9722-2). […] Colistin sulfate salt (catalog number C4461) was purchased from Sigma Aldrich. All assays were completed in duplicate and repeated at least two separate times. All compounds were dissolved as their HCl salts in molecular biology grade DMSO as 10 or 100 mM stock solutions and stored at −20° C. Colistin was dissolved in sterile water while clarithromycin was dissolved in molecular biology grade DMSO.
Broth microdilution method for antibiotic potentiation. Day cultures (6 h) of bacteria in CAMHB were subcultured to 5×10^5 CFU/mL in CAMHB. Aliquots (4 mL) were placed in culture tubes and dosed with compound from 10 mM stock samples to give the desired concentration of the compound to be tested against the particular bacterial strain; this insured non-toxic DMSO concentrations ≤0.3% in each well. 1 mL of the resulting solution was placed in a separate culture and dosed with antibiotic at the highest concentration to be tested. Bacteria treated with antibiotic alone served as the control. Row one of a 96-well plate was filled with 200 μL of the antibiotic/2-AI solution, and rows 2-12 were filled with 100 μL each of the remaining 4 mL of bacterial subculture containing adjuvant at the desired concentration, except for the control lane which contained only bacterial subculture. Row one was then mixed five times, and 100 μL was transferred to row two, which was then mixed five times before being transferred to row three. This process was repeated until all rows had been mixed, except for row twelve which would have only 2-AI to serve as a control to monitor potential toxicity. The 96-well plate was then covered in Glad Press n'Seal and incubated under stationary conditions at 37° C. for 16 h. MIC values were determined as the lowest concentration at which no bacterial growth was observed, and fold reductions were determined by comparison to antibiotic control lane.
Dose-response of Adjuvant Assay. The procedure for ‘broth microdilution method for antibiotic potentiation’ was followed using 4 mL aliquots of adjuvant at various concentrations: 0, 5, 7.5, 10, 15, 20, 25, and 30 μM.

AB5075 [4] = settings: compound alone, previously reported; cited from earlier work
AB5075 [5] = settings: previously reported, cited from earlier work
AB5075 [6] = settings: previously reported, cited from earlier work; remark: listed apart in the source
AB5075 [7] = assay: Evolution of clarithromycin resistance by serial passage; type: cell-based, Acinetobacter baumannii
Experimental: A. baumannii 5075 was grown in CAMHB overnight then subcultured (5×10^5 CFU/mL) in 6 mL of fresh CAMHB. Adjuvant was added into this 6-mL subculture at either 10 or 30 μM concentrations. […] This was serially repeated for a period of nine days.

[8] = test system: A. baumannii isolates (23 strains); assay: Minimum inhibitory concentration against AB isolates; type: cell-based, Acinetobacter baumannii; settings: CLR alone
Experimental: Broth microdilution method for MIC determination. Day cultures (6 h) of each bacterial strain in cation adjusted Mueller Hinton II broth (CAMHB, Fisher Scientific U.S.) were subcultured to 5×10^5 CFU/mL in CAMHB. Aliquots (1 mL) were placed in culture tubes and compound was added from 10 mM stock samples in DMSO, such that compound concentration equaled highest concentration tested (200 μM). Samples were then aliquoted (200 μL) into the first wells of a 96-well plate, with all remaining wells being filled with 100 μL of initial bacterial subculture. Row one wells were mixed five times, before 100 μL was transferred to row two. Row two was then mixed five times, and 100 μL was transferred to row three. This process was repeated until the final row had been mixed; this served to serially dilute the compound. Plates were then covered with GLAD Press n'Seal and incubated under stationary conditions at 37° C. for 16 h. MIC values were then recorded as the lowest concentration at which no bacterial growth was observed.

[9] = test system: E. coli biofilm formation; settings: Bioorg Med Chem Lett 2010; cited from earlier work
[10] = passaging with CLR and 30 μM adjuvant 1, day 2 and day 9, adjuvant 1 at 30 μM

Molecule: Nc1nc(-c2ccc(NC(=O)c3cc(Br)cc(Br)c3)cc2)c[nH]1 [Compound 2]
MIC (AB5075 [4]): 100 µM (≈ 43.6 µg/mL)
Fold Reduction of CLR MIC (AB5075 [5]; compound at 10 μM): 16 fold
Fold Reduction of CLR MIC (AB5075 [5]; compound at 30 μM): 128 fold
Colistin MIC (AB5075 [6]; compound at 30 μM): 4 µg/mL

Molecule: Cl.Nc1nc(-c2ccc(NC(=O)c3cc(Cl)cc(Cl)c3)cc2)c[nH]1 [Compound 1, N-(4-(2-amino-1H-imidazol-4-yl)phenyl)-3,5-dichlorobenzamide hydrochloride]
suppression of evolution of CLR resistance (AB5075 [7]; AB5075 passaged with CLR and 30 μM adjuvant, nine-day course, hydrochloride): suppressed the increase in macrolide resistance; also recorded: suppresses the acquisition of CLR resistance
CLR MIC (AB5075 [7]; CLR-resistant AB5075 mutant from CLR-alone passaging, compound at 30 μM): 2 µg/mL
CLR MIC (AB5075 [7]; [10]): 0.25 µg/mL
Fold Reduction of CLR MIC (AB5075 [7]; [10]): 128 fold
CLR MIC (AB5075 [7]; serial passage with CLR + adjuvant 1 (30 μM), day 2, compound 1 tested at 30 μM): 0.25 µg/mL
CLR MIC (AB5075 [7]; serial passage with CLR + adjuvant 1 (30 μM), day 4, compound 1 tested at 30 μM): 0.25 µg/mL
CLR MIC (AB5075 [7]; serial passage with CLR + adjuvant 1 (30 μM), day 6, compound 1 tested at 30 μM): 0.25 µg/mL
CLR MIC (AB5075 [7]; serial passage with CLR + adjuvant 1 (30 μM), day 8, compound 1 tested at 30 μM): ≤0.5 µg/mL
CLR MIC (AB5075 [7]; serial passage with CLR + adjuvant 1 (30 μM), day 10, compound 1 tested at 30 μM): 0.25 µg/mL
Fold Reduction of CLR MIC (AB5075 [5]; compound at 10 μM): 16 fold
Colistin MIC (AB5075 [6]; compound at 30 μM): 4 µg/mL

Molecule: CC[C@H]1OC(=O)[C@H](C)[C@@H](O[C@H]2C[C@@](C)(OC)[C@@H](O)[C@H](C)O2)[C@H](C)[C@@H](O[C@@H]2O[C@H](C)C[C@H](N(C)C)[C@H]2O)[C@](C)(OC)C[C@@H](C)C(=O)[C@H](C)[C@@H](O)[C@]1(C)O [CLR, clarithromycin, reference compound]
CLR MIC (AB5075 [2]; CLR alone, no adjuvant): 32 µg/mL
CLR MIC ([8]; A. baumannii strain 3560): 32 µg/mL
CLR MIC ([8]; A. baumannii strain 3785): 64 µg/mL
CLR MIC ([8]; A. baumannii strain 3806): 16 µg/mL
CLR MIC ([8]; A. baumannii strain 3927): 32 µg/mL
CLR MIC ([8]; A. baumannii strain 4025): 64 µg/mL
CLR MIC ([8]; A. baumannii strain 4026): 64 µg/mL
CLR MIC ([8]; A. baumannii strain 4027): 64 µg/mL
CLR MIC ([8]; A. baumannii strain 4052): 32 µg/mL
CLR MIC ([8]; A. baumannii strain 4269): 32 µg/mL
CLR MIC ([8]; A. baumannii strain 4448): 32 µg/mL
CLR MIC ([8]; A. baumannii strain 4456): 32 µg/mL
CLR MIC ([8]; A. baumannii strain 4490): 32 µg/mL
CLR MIC ([8]; A. baumannii strain 4498): 64 µg/mL
CLR MIC ([8]; A. baumannii strain 4795): 32 µg/mL
CLR MIC ([8]; A. baumannii strain 4857): 64 µg/mL
CLR MIC ([8]; A. baumannii strain 4878): 32 µg/mL
CLR MIC ([8]; A. baumannii strain 4957): 32 µg/mL
CLR MIC ([8]; A. baumannii strain 4991): 32 µg/mL
CLR MIC ([8]; A. baumannii strain 5001): 32 µg/mL
CLR MIC ([8]; A. baumannii strain 5197): 64 µg/mL
CLR MIC ([8]; A. baumannii strain 5256): 32 µg/mL
CLR MIC ([8]; A. baumannii strain 5711): 64 µg/mL
CLR MIC ([8]; A. baumannii strain 8967): 16 µg/mL
CLR MIC (AB5075 [7]; CLR-alone exposure of AB5075, day 0): 32 µg/mL
CLR MIC (AB5075 [7]; CLR-alone exposure of AB5075, day 4): 128 µg/mL
CLR MIC (AB5075 [7]; CLR-alone exposure of AB5075, day 6): 512 µg/mL
CLR MIC (AB5075 [7]; CLR-resistant AB5075 mutant from CLR-alone passaging, no adjuvant): 512 µg/mL
CLR MIC (AB5075 [7]; passaging with CLR and 30 μM adjuvant 1, day 2 and day 9, without adjuvant): 32 µg/mL
CLR MIC (AB5075 [7]; serial passage with CLR + adjuvant 1 (30 μM), day 2, compound 1 tested at 0 μM): 16 µg/mL
CLR MIC (AB5075 [7]; serial passage with CLR + adjuvant 1 (30 μM), day 4, compound 1 tested at 0 μM): 32 µg/mL
CLR MIC (AB5075 [7]; serial passage with CLR + adjuvant 1 (30 μM), day 6, compound 1 tested at 0 μM): 32 µg/mL
CLR MIC (AB5075 [7]; serial passage with CLR + adjuvant 1 (30 μM), day 8, compound 1 tested at 0 μM): 32 µg/mL
CLR MIC (AB5075 [7]; serial passage with CLR + adjuvant 1 (30 μM), day 10, compound 1 tested at 0 μM): 32 µg/mL
CLR MIC (AB5075 [5]; CLR alone): 32 µg/mL

Molecule: Colistin sulfate salt [reference compound]
Colistin MIC (AB5075 [3]; colistin alone, no adjuvant): 0.5 µg/mL
Colistin MIC (AB5075 [6]; colistin alone): 1 µg/mL

Further lines, with some results ahead:

CLR MIC (AB5075 [2]; compound tested at 10 μM): 32 µg/mL
CLR MIC (AB5075 [2]; compound tested at 20 μM): 8 µg/mL
CLR MIC (AB5075 [2]; compound tested at 30 μM): 1 µg/mL
Colistin MIC (AB5075 [3]; compound tested at 30 μM): 1 µg/mL
Molecule: Cl.Nc1nc(-c2ccc(NC(=O)c3cc(F)c(F)c(F)c3)cc2)c[nH]1 [Compound 4v]
MIC (AB5075 [1]): 100 µM

CLR MIC (AB5075 [2]; compound tested at 10 μM): 32 µg/mL
CLR MIC (AB5075 [2]; compound tested at 20 μM): 16 µg/mL
CLR MIC (AB5075 [2]; compound tested at 25 μM): 8 µg/mL
Colistin MIC (AB5075 [3]; compound tested at 30 μM): 0.25 µg/mL
Molecule: Cl.Nc1nc(-c2ccc(NC(=O)c3c(Cl)cc(Cl)cc3Cl)cc2)c[nH]1 [Compound 4s]
MIC (AB5075 [1]): 100 µM

CLR MIC (AB5075 [2]; compound tested at 7.5 μM): 8 µg/mL
CLR MIC (AB5075 [2]; compound tested at 10 μM): 4 µg/mL
Fold Reduction of CLR MIC (AB5075 [2]; compound tested at 10 μM): eight
CLR MIC (AB5075 [2]; compound tested at 20 μM): 0.5 µg/mL
Fold Reduction of CLR MIC (AB5075 [2]; compound tested at 30 μM): 64 fold
Colistin MIC (AB5075 [3]; compound tested at 30 μM): 4 µg/mL
Molecule: Cl.Nc1nc(-c2ccc(NC(=O)c3ccc(Cl)c(Cl)c3)cc2)c[nH]1 [Compound 4r]
MIC (AB5075 [1]): 100 µM

CLR MIC (AB5075 [2]; compound tested at 30 μM): 4 µg/mL
Fold Reduction of CLR MIC (AB5075 [2]; compound tested at 30 μM): eight-fold
Molecule: Nc1nc(-c2ccc(NC(=O)c3cc(F)cc(F)c3)cc2)c[nH]1 [Compound 4k]
MIC (AB5075 [1]; Acinetobacter baumannii): > 200 µM
adjuvant activity (CLR potentiation), rank by amide linker position (AB5075 [2]; dosed at 30 μM): highest adjuvant activity
biofilm inhibition activity [9]: lead biofilm inhibitor
